Reference: patent US6335357B1, “Pyrazole derivatives, process for preparing the same, intermediates, and pest control agent containing the same as active ingredient” (Mitsubishi Chemical Corporation, priority 1997, dated 2002)

Tests used:
Assay type in all cases: in vivo
Nilaparvata lugens = assay: Insecticidal effect on larvae of Nilaparvata lugens (Test Example 1); conditions: 500 ppm; 4th instar larvae on rice seedling, sprayed emulsion; after 5 days at 25° C.
Experimental: Insecticidal Effect on Larvae of Nilaparvata lugens:
A rice seedling was planted in a glass cylinder (inner diameter: 3 cm; length: 17 cm), and five 4th instar larvae of Nilaparvata lugens were set free therein. An agricultural and horticultural insecticide was prepared in accordance with Formulation Example 3 and diluted with water, and 0.5 ml of the resulting emulsion was sprayed in the cylinder by means of a spray tower (manufactured by Mizuho Rika) (duplicates at a concentration). The cylinder was kept in a thermostat at 25° C., and the mortality and agony of the larvae were examined after 5 days from the treatment to obtain a death rate (%) taking an agonizing insect as a ½ dead insect.

Plutella xylostella [1] = assay: Insecticidal effect on larvae of Plutella xylostella (Test Example 2); conditions: 500 ppm; 3-instar larvae, cabbage leaf disc soaked in suspension; after 4 days at 25° C.
Experimental: Insecticideal Effect on Larvae of Plutella xylostella:
A disc (6 cm in diameter) cut out of a cabbage leaf was soaked in an aqueous suspension of the agricultural and horticultural insecticide prepared in accordance with Formulation Example 1 for 1 minute, air-dried, and placed in a plastic cup (inner diameter: 7 cm). Five 3-instar larvae of Plutella xylostella were set free in the cup (duplicates at a concentration). The cup was kept in a thermostat at 25° C., and the death and agony of the larvae were examined after 4 days from the treatment to obtain a death rate (%) taking an agonizing insect as a ½ dead insect. The results obtained are shown in Table 3 (the compound numbers in the Table below correspond to the numbers in Table 1).

Spodoptera litura [2] = assay: Insecticidal effect on larvae of Spodoptera litura (Test Example 3); conditions: 500 ppm; 3-instar larvae, cabbage leaf disc soaked in suspension; after 5 days at 25° C.
Experimental: Insecticidal Effect on Larvae of Spodoptera litura:
A disc (6 cm in diameter) cut out of a cabbage leaf was soaked in an aqueous suspension of an agricultural and horticultural insecticide prepared in accordance with Formulation Example 1 for 1 minute, air-dried, and placed in a plastic cup (inner diameter: 7 cm). Five 3-instar larvae of Spodoptera litura were set free in the cup (duplicates at a concentation). The cup was kept in a thermostat at 25° C., and the death and agony of the larvae were examined after 5 days from the treatment to obtain a death rate (%) taking an agonizing insect as a ½ dead insect. The results obtained are show in Table 4 (the compound numbers in the Table below correspond to the numbers in Table 1).

Callosobruchus chinensis = assay: Insecticidal effect on imagoes of Callosobruchus chinensis (Test Example 4); conditions: 500 ppm, sprayed emulsion, after 4 days at 25° C.
Experimental: Insecticidal Effect on Imagoes of Callosobruchus chinensis:
Two adzuki beans were put in a glass cylinder (inner diameter: 3 cm; length: 15 cm), and 10 imagoes of Callosobruchus chinensis were set free therein. An agricultural and horticultural insecticide was prepared in accordance with Formulation Example 3 and diluted with water, and 0.3 ml of the resulting emulsion was sprayed in the glass cylinder by means of a spray tower (manufactured by Mizuho Rica) (duplicates at a concentration). The cylinder was kept in a thermostat at 25° C., and the mortality and agony of the larvea were examined after 4 days from the treatment to obtain a death rate (%) taking an agonizing insect as a ½ dead insect.

Myzus persicae [3] = assay: Insecticidal effect on larvae of Myzus persicae (Test Example 5); conditions: 500 ppm; Japanese radish leaves dipped in emulsion; 4th day after treatment at 25° C.
Experimental: Insecticidal Effect on Larvae of Myzus persicae:
Water was put in a screw bottle (volume: 10 ml), and a leafstalk of Japanese radish was placed therein and inoculated with 5 to 6 imagoes of Myzus persicae per leave. After the inoculation, the bottle was put in a glass cylinder (diameter: 3.5 cm; height: 15 cm) with a mesh cover, and the insects were let to proliferate in a thermostat kept at 25° C. for 3 days. […] The cylinder was maintained in the thermostat at 25° C., and the number of the insects on the leaves was counted on the 4th day after the treatment to obtain a death rate (%).

Spodoptera litura [4] = assay: Low concentration test, Spodoptera litura (Test Example 6)
Plutella xylostella [5] = assay: Low concentration test, Plutella xylostella (Test Example 6)
Text: Effects on the larvae of Plutella xylostella of compound Nos. 2 and 57 of the invention and, for comparison, the compound I described in an unexamined published Japanese patent application 63-316771 and the compounds II and III described in an unexamined published Japanese patent application 5-148240 were examined at varied concentrations. The results obtained are shown in Table 7 (the compound numbers in the Table correspond to the numbers in Table 1).

Myzus persicae [6] = assay: Low concentration test, Myzus persicae (Test Example 6)
CD-1 male mice = assay: Single oral dose administration test in mice (acute toxicity, Test Example 7); conditions: 300 mg/kg single oral dose in 0.5% CMC-Na, after 7 days
Experimental: Single Oral Dose Administration Test in Mice:
Acute toxicity (p.o.) compound No. 1 in mice was examined as follows. For comparison, compound IV disclosed in an unexamined published Japanese patent application 63-316771 was tested similarly.
Each test compound (300 mg) was suspended in 10 ml of a 0.5% CMC-Na aqueous solution. Five 6-week-old CD-1 male mice (available from Charles River) per group were forced to take an oral dose of 10 ml/kg of the suspension. The number of dead mice was counted after 7 days from the administration to obtain a death rate.

Row | Compound | Death Rate (%) (Nilaparvata lugens) | Death Rate (%) (Plutella xylostella [1]) | Death Rate (%) (Spodoptera litura [2]) | Death Rate (%) (Callosobruchus chinensis) | Death Rate (%) Spodoptera litura (Spodoptera litura [4]; 12.5 ppm) | Death Rate (%) Spodoptera litura (Spodoptera litura [4]; 50 ppm) | Death Rate (%) Spodoptera litura (Spodoptera litura [4]; 200 ppm) | Death Rate (%) Plutella xylostella (Plutella xylostella [5]; 0.2 ppm) | Death Rate (%) Plutella xylostella (Plutella xylostella [5]; 0.8 ppm) | Death Rate (%) Plutella xylostella (Plutella xylostella [5]; 3.1 ppm) | Death Rate (%) Plutella xylostella (Plutella xylostella [5]; 12.5 ppm) | Death Rate (%) Plutella xylostella (Plutella xylostella [5]; 50 ppm) | Death Rate (%) Plutella xylostella (Plutella xylostella [5]; 200 ppm) | Death Rate (%) Myzus persicae (Myzus persicae [6]; 200 ppm) | further results
1 | N#Cc1nn(-c2c(Cl)cc(C(F)(F)F)cc2Cl)c(NCc2ccncc2)c1SC(F)(F)F [Compound 1, 1-(2,6-Dichloro-4-trifluoromethylphenyl)-3-cyano-4-trifluoromethylsulfenyl-5-(4-pyridylmethylamino)pyrazole] | 100% | 100% | 100% | 100% | 100% | 100% | 100% | 100% | 100% | 100% | 100% | 100% | 100% | 100% | Death Rate (%) (Myzus persicae [3]): 100%; Death Rate (%) Spodoptera litura (Spodoptera litura [4]; 3.1 ppm): 95%; Death Rate (%) Plutella xylostella (Plutella xylostella [5]; 0.05 ppm): 95%; Death Rate (%) Myzus persicae (Myzus persicae [6]; 12.5 ppm): 98%; Death Rate (%) Myzus persicae (Myzus persicae [6]; 50 ppm): 100%
2 | COc1cc(CNc2c(SC(F)(F)F)c(C#N)nn2-c2c(Cl)cc(C(F)(F)F)cc2Cl)ccc1O [Compound 2, 1-(2,6-Dichloro-4-trifluoromethylphenyl)-3-cyano-4-trifluoromethylsulfenyl-5-[(3-methoxy-4-hydroxyphenyl)methylamino]pyrazole] | 100% | 100% | 100% | 100% |  |  |  |  |  |  |  |  |  |  | Death Rate (%) (Myzus persicae [3]): 100%; Death Rate (%) (CD-1 male mice): 0%
3 | CC(C)(C)c1ccc(CNc2c(SC(F)(F)F)c(C#N)nn2-c2c(Cl)cc(C(F)(F)F)cc2Cl)cc1 [Compound 5] | 100% |  |  | 100% |  |  |  |  |  |  |  |  |  |  | 
4 | COc1ccc(CNc2c(SC(F)(F)F)c(C#N)nn2-c2c(Cl)cc(C(F)(F)F)cc2Cl)cc1 [Compound 7] | 100% | 100% | 100% | 100% |  |  |  |  |  |  |  |  |  |  | 
5 | CC(C)Oc1ccc(CNc2c(SC(F)(F)F)c(C#N)nn2-c2c(Cl)cc(C(F)(F)F)cc2Cl)cc1 [Compound 8] | 100% | 100% |  | 100% |  |  |  |  |  |  |  |  |  |  | 
6 | N#Cc1nn(-c2c(Cl)cc(C(F)(F)F)cc2Cl)c(NCc2ccccc2Cl)c1SC(F)(F)F [Compound 18] | 100% | 100% | 100% | 100% |  |  |  |  |  |  |  |  |  |  | 
7 | Cn1cccc1CNc1c(SC(F)(F)F)c(C#N)nn1-c1c(Cl)cc(C(F)(F)F)cc1Cl [Compound 57] | 100% | 100% | 100% | 100% | 70% | 100% | 100% | 40% | 100% | 100% | 100% | 100% | 100% | 100% | Death Rate (%) (Myzus persicae [3]): 100%; Death Rate (%) Myzus persicae (Myzus persicae [6]; 12.5 ppm): 80%; Death Rate (%) Myzus persicae (Myzus persicae [6]; 50 ppm): 90%
8 | COc1cc(CNc2c([S+]([O-])C(F)(F)F)c(C#N)nn2-c2c(Cl)cc(C(F)(F)F)cc2Cl)ccc1O (stereo not shown) [Compound 64] | 100% | 100% |  | 100% |  |  |  |  |  |  |  |  |  |  | 
9 | Cn1cccc1C=Nc1c(SC(F)(F)F)c(C#N)nn1-c1c(Cl)cc(C(F)(F)F)cc1Cl [III] |  |  |  |  | 65% | 95% | 100% |  | 20% | 75% | 100% | 100% | 100% | 0% | 
10 | N#Cc1nn(-c2c(Cl)cc(C(F)(F)F)cc2Cl)c(N=Cc2ccncc2)c1SC(F)(F)F [II] |  |  |  |  | 95% | 200% | 100% | 100% | 100% | 100% | 100% | 100% | 100% | 0% | Death Rate (%) Spodoptera litura (Spodoptera litura [4]; 3.1 ppm): 60%; Death Rate (%) Plutella xylostella (Plutella xylostella [5]; 0.05 ppm): 80%
11 | N#Cc1nn(-c2c(Cl)cc(C(F)(F)F)cc2Cl)c(N)c1[S+]([O-])C(F)(F)F (stereo not shown) [IV, reference compound] |  |  |  |  |  |  |  |  |  |  |  |  |  |  | Death Rate (%) (CD-1 male mice): 80%
12 | CCCNc1c(SC(F)(F)F)c(C#N)nn1-c1c(Cl)cc(C(F)(F)F)cc1Cl [I] |  |  |  |  | 50% | 100% | 100% | 20% | 85% | 100% | 100% | 100% | 100% | 50% | Death Rate (%) Spodoptera litura (Spodoptera litura [4]; 3.1 ppm): 0%; Death Rate (%) Myzus persicae (Myzus persicae [6]; 3.1 ppm): 0%; Death Rate (%) Myzus persicae (Myzus persicae [6]; 12.5 ppm): 50%; Death Rate (%) Myzus persicae (Myzus persicae [6]; 50 ppm): 60%
